The target in experiment [1] is Prostaglandin G/H synthase 1 (Ovis aries) (UniProt P05979). The experiment in a line: Inhibition of PGH synthase by measuring oxygen consumption with a Clark oxygen electrode at 100 uM. Set-up: scale not given: the % may be the effect or the level left.
For experiment [2] the target is unchanged. Description: Inhibition of PGH synthase was determined by measuring oxygen consumption with a Clark oxygen electrode at 25 uM. On the set-up: scale not given: the % may be the effect or the level left.

Sequence of Prostaglandin G/H synthase 1 (Ovis aries) (P05979 whole entry, looked up): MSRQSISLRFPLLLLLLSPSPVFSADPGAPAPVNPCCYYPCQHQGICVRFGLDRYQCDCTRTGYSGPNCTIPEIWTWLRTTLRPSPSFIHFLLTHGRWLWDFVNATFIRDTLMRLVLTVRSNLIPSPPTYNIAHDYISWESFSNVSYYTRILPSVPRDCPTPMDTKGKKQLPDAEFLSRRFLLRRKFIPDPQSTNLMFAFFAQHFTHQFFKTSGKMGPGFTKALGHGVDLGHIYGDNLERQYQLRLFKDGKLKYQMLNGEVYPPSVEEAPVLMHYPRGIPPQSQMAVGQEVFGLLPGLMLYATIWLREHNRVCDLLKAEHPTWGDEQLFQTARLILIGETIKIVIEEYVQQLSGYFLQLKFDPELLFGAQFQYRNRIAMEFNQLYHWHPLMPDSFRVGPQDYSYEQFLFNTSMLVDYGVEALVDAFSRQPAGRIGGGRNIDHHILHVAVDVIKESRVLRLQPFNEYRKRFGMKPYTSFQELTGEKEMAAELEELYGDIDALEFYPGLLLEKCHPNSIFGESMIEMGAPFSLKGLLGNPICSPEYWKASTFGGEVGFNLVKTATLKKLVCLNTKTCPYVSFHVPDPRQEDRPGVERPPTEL

In the case of `O=C1C(CC#CCCl)C(=O)N(c2ccccc2)N1c1ccccc1`, the Control in experiment [1] turned out to be 10%; in experiment [2], 35%.
`O=C(CCl)NCCC1C(=O)N(c2ccccc2)N(c2ccccc2)C1=O` registered a Control in experiment [1] of 90%.
For the molecule `CCCC=C1C(=O)N(c2ccccc2)N(c2ccccc2)C1=O`, the Control is 18% in experiment [1] and 29% in experiment [2].
In experiment [1], `O=C(CBr)NCCC1C(=O)N(c2ccccc2)N(c2ccccc2)C1=O` showed a Control of 79%.
For `CC(=C1C(=O)N(c2ccccc2)N(c2ccccc2)C1=O)c1ccccc1`, the Control turned out to be 31% in experiment [1] and 73% in experiment [2].
For `CC(C)=C1C(=O)N(c2ccccc2)N(c2ccccc2)C1=O`, the Control turned out to be 63% in experiment [1] and 89% in experiment [2].
As to `CC(C)(C#N)C1C(=O)N(c2ccccc2)N(c2ccccc2)C1=O`, the Control was found to be 5% in experiment [1] and 23% in experiment [2].
Take `O=C1C(=C/C=C/c2ccccc2)C(=O)N(c2ccccc2)N1c1ccccc1`: the Control in experiment [1] turned out to be 96%.
Regarding `O=C(NCCC1C(=O)N(c2ccccc2)N(c2ccccc2)C1=O)Oc1ccccc1`, the Control in experiment [1] amounted to 42%; in experiment [2], 78%.
Consider `CCC(C)=C1C(=O)N(c2ccccc2)N(c2ccccc2)C1=O`, for which the Control in experiment [1] was determined as 21%; in experiment [2], 49%.
